In patent publication US20070244190A1, “Neobritannilactone B and acetyl neobritannilactone B” (priority 2006, published 2007):

Key:
Format in all cases: cell-based, human
[1] = tested on: AGS cells; assay: Sub-G1 flow cytometry (Example 3); settings: 24 h, FIG. 3
Procedure: Flow Cytometry. AGS cells (2×10^5) were cultured in 60-mm Petri dishes and incubated for 24 h. The cells were then harvested, washed with PBS, resuspended in 200 μL of PBS, and fixed in 800 μL of iced 100% ethanol at −20° C. After being left to stand overnight, the cell pellets were collected by centrifugation, resuspended in 1 mL of hypotonic buffer (0.5% Triton X-100 in PBS and 0.5 μg/mL RNase), and incubated at 37° C. for 30 min. Next, 1 mL of propidium iodide solution (50 μg/mL) was added, and the mixture was allowed to stand on ice for 30 min. Fluorescence emitted from the propidium iodide-DNA complex was quantitated after excitation of the fluorescent dye by FACScan cytometry (Becton Dickinson, San Jose, Calif.).
The cytotoxic effects of NAB and ANAB in AGS cells were analyzed to assess their consistency with the specific changes that characterize apoptosis, such as DNA fragmentation. To investigate the induction of a sub-G1 cell population, the DNA content of AGS cells treated with various concentrations of NAB and ANAB was analyzed by flow cytometry. Cells were treated with NAB and ANAB, and stained with propidum iodide.

[2] = tested on: poly-(ADP-ribose) polymerase (PARP) in AGS cells; assay: Western blot of PARP cleavage; settings: for PARP cleavage (85-kDa fragment): AGS cells treated for 24, FIG. 6A
Procedure: (§1) Western Blotting. The nuclear and cytosolic proteins were isolated from AGS cells after treatment with 60 μM for 0, 3, 6, 9, 12, 18, and 24 h. The total proteins were extracted via the addition of 200 μL of gold lysis buffer (50 mM Tris-HCl, pH 7.4; 1 mM NaF; 150 mM NaCl; 1 mM EGTA; 1 mM phenylmethanesulfonyl fluoride; 1% NP-40; and 10 μg/mL leupeptin) to the cell pellets on ice for 30 min, followed by centrifugation at 10,000 g for 30 min at 4° C. The cytosolic fraction (supernatant) proteins were measured by Bio-Rad protein assay (Bio-Rad Laboratories, Munich, Germany). The samples (50 μg of protein) were mixed with 5× sample buffer containing 0.3 M Tris-HCl (pH 6.8), 25% 2-mercaptoethanol, 12% sodium dodecyl sulfate (SDS), 25 mM EDTA, 20% glycerol, and 0.1% bromophenol blue. The mixtures were boiled at 100° C. for 5 min and were subjected to 12% SDS-polyacrylamide minigels at a constant current of 20 mA. Subsequently, electrophoresis was ordinarily carried out on SDS-polyacrylamide gels. For electrophoresis, proteins on the gel were electrotransferred onto an immobile membrane (PVDF; Millipore Corp., Bedford, Mass.) with transfer buffer composed of 25 mM Tris-HCl (pH 8.9), 192 mM glycine, and 20% methanol. The membranes were blocked with blocking solution containing 20 mM Tris-HCl and then immunoblotted with primary antibodies including, anti-Bcl-XL, anti-β-actin (Transduction Laboratory, Lexington, Ky.), anti-PARP (UBI, Inc., Lake Placid, N.Y.), at room temperature for 1 h. Detection was achieved by measuring the chemiluminescence of blotting agent (ECL, Amersham Corp., Arlington Heights, Ill.), after exposure of the filters to KODAK X-OMAT films.
Activation of caspase-3 leads to the cleavage of a number of proteins, one of which is poly-(ADP-ribose) polymerase (PARP). A hallmark of apoptosis is that PARP (116 kDa) is cleaved to produce an 85-kDa fragment. PARP cleavage was examined in cells treated with NAB or ANAB for 24.

[3] = tested on: Bcl-XL in AGS cells; assay: Western blot of Bcl-XL expression; settings: for Bcl-XL expression: various concentrations, 24 hours, FIG. 7A
Procedure: as §1, with “The nuclear and cytosolic proteins were isolated from AGS cells after treatment with 60 μM for 0, 3, 6, 9, 12, 18, and 24 h.” left out
Several gene products are known to be important in controlling the apoptotic process. The imbalance of expression of anti- and pro-apoptotic proteins after a stimulus is one of the major mechanisms underlying the ultimate fate of cells in the apoptotic process. Bcl-XL expression in tumor cells, for instance, confers resistance against chemotherapeutic drugs. The expression of anti-apoptotic protein Bcl-XL was therefore examined in cancer cells treated with various concentrations of NAB or ANAB for 24 hours. […] FIG. 7A. […] FIG. 7B.

Structure (SMILES)	percentage of apoptotic AGS cells ([1]; 5 μM)	percentage of apoptotic AGS cells ([1]; 10 μM)	percentage of apoptotic AGS cells ([1]; 15 μM)	percentage of apoptotic AGS cells ([1]; 25 μM)	PARP cleavage over time ([2]; 15 μM, time course, FIG. 6B)	PARP cleavage (85-kDa fragment) [2]	Bcl-XL expression over time ([3]; at 12 h, 15 μM, FIG. 7B)	Bcl-XL expression [3]
C=C1C(=O)O[C@H]2/C=C(\C)CC/C=C(\C)C[C@H](OC(C)=O)[C@@H]12 [Compound 4, acetyl neobritannilactone B]	24%	64%	81%	92%	time-dependent proteolytic cleavage of PARP	PARP proteolytic fragment was found	marked and significant change in the expression of Bcl-XL	dose-dependent decrease of Bcl-XL
C=C1C(=O)OC2C=C(C)CCC=C(C)CC(O)C12 (stereo not drawn) [Compound 3, 4-hydroxy-3α,4,5,8,9,11α-hexahydro-6,10-dimethyl-3-methylene-cyclodeca[b]furan-2(3H)-one]	14%	27%	63%	86%	–	PARP proteolytic fragment was found	–	dose-dependent decrease of Bcl-XL
